# Measurements: US9155723B2, “Anti-CXCR4 as a sensitizer to cancer therapeutics” (THE GENERAL HOSPITAL CORPORATION, priority 2010, dated 2015)
# “Also recorded” adds a separate entry of the source. Where two headings read alike, the source gives them in different places.
# Legend:
# 54A human lung tumors = settings: AMD3100 osmotic pumps alone for 2 weeks, no irradiation; 54A tumors
# Source text: (§1) 54A human lung tumors were xenografted in male athymic NCr/Sed nude (nu/nu) mice, and MCa8 mouse mammary carcinomas were implanted in female syngeneic FVB mice (both subcutaneously in the hind limb; refs. 3, 11). To detect specific BMDC populations in tumors (i.e., Tie2^+CD11b^− EPCs and Tie2^+CD11b^+ TEMs), irradiated wild-type FVB mice were irradiated with 9 Gy of whole-body irradiation (WBI) followed by restorative bone marrow transplantation (BMT) from Tie2-GFP-FVB donors to create chimeric wild-type/Tie2-GFP-BMT mice (3). MCa8 tumors were implanted in these mice 6 weeks post-BMT.
# (§2) Tumor size was measured with a caliper at least thrice a week. When a tumor reached 5.5 mm in mean diameter, the mouse was randomized to a treatment group. Tumors were γ-irradiated using the same dose delivered either locally alone or locally plus a sublethal WBI dose of 6 Gy. […] Unsorted BMDCs (from femurs and tibias of one tumor- and treatment-naïve donor to two recipients) or fluorescence-activated cell-sorted Sca1^−CD11b^+ (150,000-200,000 cells) or Sca1^+CD11b^+ (25,000-50,000) BMDCs (from one donor to one recipient) were i.v. infused in mice receiving LI plus WBI. […] Therapeutic efficacy was measured as the time taken for tumors to grow to 7.5 mm in diameter (i.e., 2.5-fold increase compared with the pretreatment volume).
# [1] = system: MCa8 mouse mammary carcinomas; settings: AMD3100 osmotic pumps alone for 2 weeks, no irradiation; MCa8 tumors
# Source text: as §1, §2
# Gr-1+ BMDCs = settings: in vitro
# Protocol: (§3) Bone marrow cells were collected in heparin-mixed PBS. The cellular filtrate was washed and a layer containing mononuclear BM cells was separated using Histopaque-1083 (Sigma). For the migration assay, BM cells were separated by CD11b, F4/80, or Gr-1 magnetic microbeads (MACS-beads; Miltenyi Biotech) from VEGFR1TK+/+ and VEGFR1TK−/− mice as per manufacturer's protocol. These cells were incubated with recombinant proteins for migration assays
# (§4) The migration of mononuclear CD11b+ BMDCs (2×10^6 cells per mL), F4/80+ BMDCs (8×10^5 cells per mL), and Gr-1+ BMDCs (8×10^5 cells per mL) was evaluated using a chemotaxis Boyden chamber (Neuroprobe). The upper and lower wells were separated by a […] pore size polyvinylpyrrolidone-free polycarbonate filter (Nucreopore; Costar). […] A 50-μl aliquot of the cell suspension was seeded in the upper wells and incubated for 3 h at 37° C. with 5% CO2. The number of cells that migrated through the membrane was counted.
# E0771 mammary tumors = system: E0771 mammary tumors
# Protocol: (§5) AMD3100 was delivered by s.c. Alzet pumps containing 10 mg/mL AMD3100 in PBS at a dose of 60 μg/day, and pumps with PBS only were used as a control. The pumps were replaced every 2 wk.
# (§6) Primary tumor tissues were fixed and frozen. Sections were stained with rat antibodies against mouse CD11b, MECA 32, Gr-1 (BD Pharmingen), and F4/80 (Serotec). Cy3- or FITC-conjugated secondary antibodies were used for the detection of signals by confocal microscopy. Slides were counterstained with DAPI for nuclear staining. The number of cells was quantified by measuring the area occupied by immunostained mononuclear cells normalized by the area of DAPI-stained nuclei (i.e., unitless). Phopho-p38 MAPK level was measured by Western blotting.
# (§7) Primary tumor tissues were fixed in 4% paraformaldehyde at 4° C. for 2 h, dehydrated in 30% sucrose overnight, and embedded in optimal cutting temperature (OCT) compound in frozen samples for immunofluorescence histological analyses.
# TRAMP-C1 prostate tumors [2] = system: TRAMP-C1 prostate tumors
# Protocol: as §5, §6, §7
# CD11b+ myeloid BMDCs = experiment: In vitro migration assay (Boyden chamber), CD11b+ myeloid BMDCs; format: cell-based, mouse
# Protocol: as §3, §4
# To reveal the mechanism of action of VEGFR1 and CXCR4 in myeloid BMDCs, bone marrow cells were harvested from C57BL/6 and VEGFR1 TK−/− mice and purified mononuclear myeloid BMDCs using magnetic separation for CD11b+ cells.
# TRAMP-C1 prostate tumors [3] = system: TRAMP-C1 prostate tumors; remark: listed apart in the source
# Protocol: TRAMP-C1 tumors were implanted s.c. in male C57BL/6 mice, and E0771 tumors were implanted s.c. in female C57BL/6 mice after BMT and recovery and/or after BMT and Mx-Cre recombination (n=5-6 mice) (SI Materials and Methods). […] Lung tissue was isolated from mice 2-4 wk after removal of the primary tumor.
# as §5
# Mice ranging from 8 to 22 wk old [due to prior bone marrow transplantation (BMT) and/or recombination procedures] were used. […] All experiments were performed at least twice. Metastatic tumor volume was measure by the formula: V=small diameter×long diameter×number of microscopic metastases.
# CXCL12 = settings: cited from earlier work
structure (smiles),measurement,setting,value
"c1cc(CN2CCCNCCNCCCNCC2)ccc1CN1CCCNCCNCCCNCC1 [AMD3100, 1,1′-[1,4-phenylene-bis(methylene)]-bis-1,4,8,11-tetraazacyclotetradecane]",tumor growth,54A human lung tumors,did not affect tumor growth
same,tumor growth,[1],did not affect tumor growth
same,rCXCL12-induced migration of Gr-1+ BMDCs,Gr-1+ BMDCs,reversed
same,TAM infiltration,E0771 mammary tumors; AMD3100 alone,did not affect the TAM infiltration
same,number of total myeloid BMDCs in tumor,E0771 mammary tumors; AMD3100 alone,decreased the number of total myeloid BMDCs
same,microvascular density (MVD),"E0771 mammary tumors; AMD3100 alone, prevention setting",decreased MVD
same,Gr-1+ myeloid BMDC infiltration,E0771 mammary tumors; irrespective of VEGFR1-TK status in BMDCs,decreased Gr-1+ myeloid BMDCs; also recorded: decreases Gr-1^+ BMDC infiltration
same,TAM infiltration,"TRAMP-C1 prostate tumors [2]; AMD3100 alone, TRAMP-C1",did not affect the TAM infiltration
same,number of total myeloid BMDCs in tumor,"TRAMP-C1 prostate tumors [2]; AMD3100 alone, TRAMP-C1",not in TRAMP-C1 tumors
same,Gr-1+ myeloid BMDC infiltration,"TRAMP-C1 prostate tumors [2]; irrespective of VEGFR1-TK status in BMDCs, TRAMP-C1",decreased Gr-1+ myeloid BMDCs; also recorded: decreases Gr-1^+ BMDC infiltration
same,number of Gr-1+ BMDCs during early tumor growth,"TRAMP-C1 prostate tumors [2]; small (4-mm) tumors, preventive setting, TRAMP-C1 model, 8-wk-old mice",significantly decreased the number of Gr-1+ BMDCs; also recorded: significantly reduces Gr-1^+ myeloid BMDC infiltration
same,rCXCL12-induced migration of WT myeloid BMDCs,"CD11b+ myeloid BMDCs; 1 μg/mL of AMD3100, rCXCL12 100 ng/mL, transwell assay",reversed
same,lung metastatic burden after primary tumor resection,"TRAMP-C1 prostate tumors [3]; BMT-VEGFR1^TK−/− mice, TRAMP-C1",significantly reduced metastatic burden
same,growth of established tumors,"TRAMP-C1 prostate tumors [3]; intervention setting, growth from 4 mm to ~1 cm, established TRAMP-C1",less substantial growth delay
C[S+]([O-])c1ccc(-c2nc(-c3ccncc3)c(-c3ccc(F)cc3)[nH]2)cc1 (centres unmarked) [SB203580],migration of myeloid BMDCs,"CD11b+ myeloid BMDCs; SB203580 1 μM, rVEGF or rCXCL12, irrespective of the chemotactic stimulus",significantly reduced the migration of myeloid BMDCs; also recorded: decreased migration of myeloid BMDCs
COc1cc2c(Oc3ccc4[nH]c(C)cc4c3F)ncnc2cc1OCCCN1CCCC1 [cediranib],circulating CXCL12,"CXCL12; recurrent GBM, P < 0.001",therapy increases
CNC(=O)c1cc(Oc2ccc(NC(=O)Nc3ccc(Cl)c(C(F)(F)F)c3)cc2)ccn1 [sorafenib],circulating CXCL12,"CXCL12; advanced sarcoma, P < 0.01",therapy increases
